Columns and labels:
[1] = molecular target: T1, p38 MAPKα isoform (MAPK14) (Homo sapiens, UniProt Q16539); assay: p38 MAPKα enzyme inhibition (Z-LYTE FRET); assay type: biochemical; conditions: Table 2B, unit inferred; read-out: p38 MAPKα (Enzyme Profile)
T1 construct: purchased Life Technologies
In short: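 Recombinant human MAPK14 (40 ng/mL stock) was preincubated 2 h at RT with compound (stock dilutions 0.0012-40 μg/mL). The Z-LYTE FRET read-out used a MAPKAP-K2-derived peptide, and protease development for 1 h cleaved only non-phosphorylated peptide. Phosphorylation was calculated from the coumarin/fluorescein emission ratio.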

p38MAPKγ (MAPK12) = molecular target: T2, p38MAPKγ (MAPK12) (Homo sapiens, UniProt P53778); assay: p38 MAPKγ enzyme inhibition (Z-LYTE FRET); assay type: biochemical; conditions: Table 2B, unit inferred; read-out: p38 MAPKγ (Enzyme Profile)
T2 construct: purchased Life Technologies
T2 sequence (P53778 1-367): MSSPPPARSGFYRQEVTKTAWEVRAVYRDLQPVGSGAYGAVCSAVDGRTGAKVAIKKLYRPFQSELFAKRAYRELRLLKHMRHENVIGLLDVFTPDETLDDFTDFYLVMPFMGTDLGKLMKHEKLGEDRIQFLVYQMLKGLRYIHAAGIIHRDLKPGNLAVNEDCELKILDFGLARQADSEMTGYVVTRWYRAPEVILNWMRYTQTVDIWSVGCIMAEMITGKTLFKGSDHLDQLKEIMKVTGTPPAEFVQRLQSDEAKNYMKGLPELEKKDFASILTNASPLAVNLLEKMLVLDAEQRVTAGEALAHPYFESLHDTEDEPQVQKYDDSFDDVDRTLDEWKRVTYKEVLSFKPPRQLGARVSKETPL
In short: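 Z-LYTE read-out: after 1 h protease development, only non-phosphorylated peptide is cleaved, and the donor/acceptor (coumarin/fluorescein) ratio reports phosphorylation. Beforehand, enzyme and compound (stock concentrations 0.0012–40 μg/mL) were preincubated 2 h at RT, then the kinase reaction ran 1 h at RT with peptide and ATP (8 μM and 400 μM stocks).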

T1 sequence (Q16539 whole entry, canonical isoform): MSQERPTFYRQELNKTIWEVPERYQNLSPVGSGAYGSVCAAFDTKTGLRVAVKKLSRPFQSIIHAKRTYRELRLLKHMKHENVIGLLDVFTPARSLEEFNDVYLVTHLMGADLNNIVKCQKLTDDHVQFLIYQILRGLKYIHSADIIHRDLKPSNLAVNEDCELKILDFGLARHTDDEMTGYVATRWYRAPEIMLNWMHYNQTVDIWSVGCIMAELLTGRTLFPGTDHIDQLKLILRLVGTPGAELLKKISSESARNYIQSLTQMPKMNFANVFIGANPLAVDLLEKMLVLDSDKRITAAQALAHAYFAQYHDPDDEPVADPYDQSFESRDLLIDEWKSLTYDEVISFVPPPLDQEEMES

| IC50 [1] [nM] | IC50 (p38MAPKγ (MAPK12)) [nM] | SMILES |
| --- | --- | --- |
| 6.2 | 52 | COCc1cccc(-n2nc(C(C)(C)C)cc2NC(=O)Nc2ccc(OCc3ccnc(Nc4cnccn4)c3)c3ccccc23)c1 [Example 166, 1-(3-(tert-butyl)-1-(3-(methoxymethyl)phenyl)-1H-pyrazol-5-yl)-3-(4-((2-(pyrazin-2-ylamino)pyridin-4-yl)methoxy)naphthalen-1-yl)urea] |
| 36 | 427 | CCc1cnc(Nc2cc(COc3ccc(NC(=O)Nc4cc(C(C)(C)C)nn4-c4cccc(C)c4)c4ccccc34)ccn2)cn1 [Example 159, 1-(3-(tert-butyl)-1-(m-tolyl)-1H-pyrazol-5-yl)-3-(4-((2-((5-ethylpyrazin-2-yl)amino)pyridin-4-yl)methoxy)naphthalen-1-yl)urea] |
| 44 | 1140 | Cc1ccc(-n2nc(C(C)(C)C)cc2NC(=O)Nc2ccc(OCc3ccnc(Nc4cnc(C)c(C)n4)c3)c3ccccc23)cc1F [Example 182, 1-(3-(tert-butyl)-1-(3-fluoro-4-methylphenyl)-1H-pyrazol-5-yl)-3-(4-((2-((5,6-dimethylpyrazin-2-yl)amino)pyridin-4-yl)methoxy)naphthalen-1-yl) urea] |
| 30 | 2390 | COc1ccc(-n2nc(C(C)(C)C)cc2NC(=O)Nc2ccc(OCc3ccnc(Nc4cnc(C)c(C)n4)c3)c3ccccc23)cn1 [Example 207, 1-(3-(tert-butyl)-1-(6-methoxypyridin-3-yl)-1H-pyrazol-5-yl)-3-(4-((2-((5,6-dimethylpyrazin-2-yl)amino)pyridin-4-yl)methoxy)naphthalen-1-yl)urea] |
| 6.8 | 93 | Cc1ccc(-n2nc(C(C)(C)C)cc2NC(=O)Nc2ccc(OCc3ccnc(Nc4cnc(C(=O)N5CCC(O)CC5)cn4)c3)c3ccccc23)cc1 [Example 127, 1-(3-(tert-butyl)-1-(p-tolyl)-1H-pyrazol-5-yl)-3-(4-((2-((5-(4-hydroxypiperidine-1-carbonyl)pyrazin-2-yl)amino)pyridin-4-yl)methoxy)naphthalen-1-yl) urea] |
| 22 | 517 | COC1CCN(C(=O)c2cnc(Nc3cc(COc4ccc(NC(=O)Nc5cc(C(C)(C)C)nn5-c5cccc(C)c5)c5ccccc45)ccn3)cn2)CC1 [Example 206, 1-(3-(tert-butyl)-1-(m-tolyl)-1H-pyrazol-5-yl)-3-(4-((2-((5-(4-methoxypiperidine-1-carbonyl)pyrazin-2-yl)amino)pyridin-4-yl)methoxy)naphthalen-1-yl)urea] |
| 31 | 2790 | Cc1ccc(-n2nc(C(C)(C)C)cc2NC(=O)Nc2ccc(OCc3ccnc(Nc4cnc5c(n4)CCC5)c3)c3ccccc23)cc1 [Example 130, 1-(3-(tert-butyl)-1-(p-tolyl)-1H-pyrazol-5-yl)-3-(4-((2-((6,7-dihydro-5H-cyclopenta [b]pyrazin-2-yl)amino)pyridin-4-yl)methoxy)naphthalen-1-yl)urea] |
| 37 | > 15600 | CCOc1ccc(-n2nc(C(C)(C)C)cc2NC(=O)Nc2ccc(OCc3ccnc(Nc4cnccn4)c3)c3ccccc23)cc1C [Example 197, 1-(3-(tert-butyl)-1-(4-ethoxy-3-methylphenyl)-1H-pyrazol-5-yl)-3-(4-((2-(pyrazin-2-ylamino)pyridin-4-yl)methoxy)naphthalen-1-yl)urea] |
| 18 | > 14000 | COc1ccc(-n2nc(C(C)(C)C)cc2NC(=O)Nc2ccc(OCc3ccnc(Nc4cnc(C(=O)N5CCCC5)cn4)c3)c3ccccc23)cn1 [Example 219, 1-(3-(tert-butyl)-1-(6-methoxypyridin-3-yl)-1H-pyrazol-5-yl)-3-(4-((2-((5-(pyrrolidine-1-carbonyl)pyrazin-2-yl)amino)pyridin-4-yl)methoxy)naphthalen-1-yl)urea] |
| < 0.41 | 54 | Cc1ccc(-n2nc(C(C)(C)C)cc2NC(=O)Nc2ccc(OCc3ccnc(Nc4cnc(C(=O)NC5CCN(C)CC5)cn4)c3)c3ccccc23)cc1 [Example 80] |
| 38 | > 15500 | CCOc1ccc(-n2nc(C(C)(C)C)cc2NC(=O)Nc2ccc(OCc3ccnc(Nc4cnccn4)c3)c3ccccc23)cc1F [Example 183, 1-(3-(tert-butyl)-1-(4-ethoxy-3-fluorophenyl)-1H-pyrazol-5-yl)-3-(4-((2-(pyrazin-2-ylamino)pyridin-4-yl)methoxy)naphthalen-1-yl) urea] |
| 16 | 150 | Cc1ccc(-n2nc(C(C)(C)C)cc2NC(=O)Nc2ccc(OCc3ccnc(Nc4cncc(NC(C)C)n4)c3)c3ccccc23)cc1 [Example 117, 1-(3-(tert-butyl)-1-(p-tolyl)-1H-pyrazol-5-yl)-3-(4-((2-((6-(isopropylamino)pyrazin-2-yl)amino)pyridin-4-yl)methoxy)naphthalen-1-yl) urea] |
| 11 | 57 | Cc1cc(-n2nc(C(C)(C)C)cc2NC(=O)Nc2ccc(OCc3ccnc(Nc4cnccn4)c3)c3ccccc23)ccn1 [Example 265, 1-(3-(tert-butyl)-1-(2-methyl-pyridin-4-yl)-1H-pyrazol-5-yl)-3-(4-((2-(pyrazin-2-ylamino)pyridin-4-yl)methoxy)naphthalen-1-yl) urea] |
| 35 | > 13700 | COc1ccc(-n2nc(C(C)(C)C)cc2NC(=O)Nc2ccc(OCc3ccnc(Nc4cnc(C(=O)N5CCCC5)cn4)c3)c3ccccc23)cc1F [Example 228, 1-(3-(tert-butyl)-1-(3-fluoro-4-methoxyphenyl)-1H-pyrazol-5-yl)-3-(4-((2-((5-(pyrrolidine-1-carbonyl)pyrazin-2-yl)amino)pyridin-4-yl)methoxy)naphthalen-1-yl)urea] |
| 3.4 | 48 | Cc1ccc(-n2nc(C(C)(C)C)cc2NC(=O)Nc2ccc(OCc3ccnc(Nc4cnc(C(=O)N5CCNC(=O)CC5)cn4)c3)c3ccccc23)cc1 [Example 241, 1-(3-(tert-butyl)-1-(p-tolyl)-1H-pyrazol-5-yl)-3-(4-((2-((5-(5-oxo-1,4-diazepane-1-carbonyl)pyrazin-2-yl)amino)pyridin-4-yl)methoxy)naphthalen-1-yl)urea] |
| 31 | 169 | CCCc1cncc(Nc2cc(COc3ccc(NC(=O)Nc4cc(C(C)(C)C)nn4-c4ccc(C)cc4)c4ccccc34)ccn2)n1 [Example 172, 1-(3-(tert-butyl)-1-(p-tolyl)-1H-pyrazol-5-yl)-3-(4-((2-((6-propylpyrazin-2-yl)amino)pyridin-4-yl)methoxy)naphthalen-1-yl) urea] |
| 39 | 345 | CO[C@H]1CCN(C(=O)c2cnc(Nc3cc(COc4ccc(NC(=O)Nc5cc(C(C)(C)C)nn5-c5ccc(C)cc5)c5ccccc45)ccn3)cn2)C1 [Example 67] |
| 17 | 15500 | COc1ccc(-n2nc(C(C)(C)C)cc2NC(=O)Nc2ccc(OCc3ccnc(Nc4cncc(OC)n4)c3)c3ccccc23)cc1 [Example 108, 1-(3-(tert-butyl)-1-(4-methoxyphenyl)-1H-pyrazol-5-yl)-3-(4-((2-((6-methoxypyrazin-2-yl)amino)pyridin-4-yl)methoxy)naphthalen-1-yl)urea] |
| 8.9 | 31 | Cc1ccc(-n2nc(C(C)(C)C)cc2NC(=O)Nc2ccc(OCc3ccnc(Nc4cncc(CCCO)n4)c3)c3ccccc23)cc1 [Example 155, 1-(3-(tert-butyl)-1-(p-tolyl)-1H-pyrazol-5-yl)-3-(4-((2-((6-(3-hydroxypropyl)pyrazin-2-yl)amino)pyridin-4-yl)methoxy)naphthalen-1-yl)urea] |
| 4.8 | 173 | CNc1cncc(Nc2cc(COc3ccc(NC(=O)Nc4cc(C(C)(C)C)nn4-c4ccc(C)cc4)c4ccccc34)ccn2)n1 [Example 120, 1-(3-(tert-butyl)-1-(p-tolyl)-1H-pyrazol-5-yl)-3-(4-((2-((6-(methylamino)pyrazin-2-yl)amino)pyridin-4-yl)methoxy)naphthalen-1-yl) urea] |
| 63 | 518 | CCc1cncc(Nc2cc(COc3ccc(NC(=O)Nc4cc(C(C)(C)C)nn4-c4ccc(C)c(C)c4)c4ccccc34)ccn2)n1 [Example 144, 1-(3-(tert-butyl)-1-(3,4-dimethylphenyl)-1H-pyrazol-5-yl)-3-(4-((2-((6-ethylpyrazin-2-yl)amino)pyridin-4-yl)methoxy)naphthalen-1-yl)urea] |
| 31 | 164 | COc1cc(F)cc(-n2nc(C(C)(C)C)cc2NC(=O)Nc2ccc(OCc3ccnc(Nc4cnccn4)c3)c3ccccc23)c1 [Example 220, 1-(3-(tert-butyl)-1-(3-fluoro-5-methoxyphenyl)-1H-pyrazol-5-yl)-3-(4-((2-(pyrazin-2-ylamino)pyridin-4-yl)methoxy)naphthalen-1-yl)urea] |
| 43 | 260 | Cc1ccc(-n2nc(C(C)(C)C)cc2NC(=O)Nc2ccc(OCc3ccnc(Nc4cncc(C5CC5)n4)c3)c3ccccc23)cc1C [Example 145, 1-(3-(tert-butyl)-1-(3,4-dimethylphenyl)-1H-pyrazol-5-yl)-3-(4-((2-((6-cyclopropylpyrazin-2-yl)amino)pyridin-4-yl)methoxy)naphthalen-1-yl)urea] |

Source: patent US11142515B2, “Pyrazolyl-ureas as kinase inhibitors” (RESPIVERT LIMITED, priority 2014, dated 2021)
